The values that follow come from patent publication US6482851B1, “Synthesis of dysidiolide and uses thereof” (Sloan-Kettering Institute for Cancer Research, priority 1998, dated 2002).

The target in data set [1] is T1, human cdc25A protein phosphatase (Homo sapiens, UniProt P30304).
T1 sequence (P30304 1-524): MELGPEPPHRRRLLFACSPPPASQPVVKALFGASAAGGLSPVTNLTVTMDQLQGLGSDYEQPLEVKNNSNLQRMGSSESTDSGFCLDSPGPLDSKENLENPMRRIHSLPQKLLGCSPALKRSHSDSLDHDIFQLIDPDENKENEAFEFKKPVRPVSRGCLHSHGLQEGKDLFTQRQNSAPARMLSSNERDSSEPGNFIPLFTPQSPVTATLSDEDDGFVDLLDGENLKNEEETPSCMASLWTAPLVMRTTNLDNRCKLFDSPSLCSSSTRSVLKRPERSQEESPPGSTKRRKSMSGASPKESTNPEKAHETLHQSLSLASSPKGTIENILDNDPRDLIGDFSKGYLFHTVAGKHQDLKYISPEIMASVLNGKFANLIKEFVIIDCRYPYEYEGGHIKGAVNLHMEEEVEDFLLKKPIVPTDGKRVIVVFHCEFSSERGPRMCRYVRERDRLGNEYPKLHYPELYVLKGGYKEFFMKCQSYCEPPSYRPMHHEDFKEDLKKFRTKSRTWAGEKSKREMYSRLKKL
The conditions noted are these: cited from earlier work.

Data set [2] deals with TSU-Pr1, PC3, DU145 and MCF7 human cancer cell lines. Put plainly: viability (Trypan blue exclusion) and FACS sub-G1 of four human cancer cell lines. The format is cell-based. As to the method: Effect of dysidiolide on the viability of the human cancer cell lines (A) TSU-Pr1, (B) MCF7, (C) PC3, and (D) DU145. Cultures were untreated or treated with 2, 10 or 50 μM dysidiolide for 24 hr. All cultures received a final DMSO concentration of 0.25%. Cells were harvested by trypsinization and viability was determined by Trypan blue exclusion.
FACS analysis of (A) TSU-Pr1, (B) PC3, (C) DU145, and (D) MCF7, untreated or treated with 2, 10 or 50 μM dysidiolide for 24 hr. All cultures received a final DMSO concentration of 0.25%.
Cells containing fragmented DNA content were detected as the M1 (subG1) region on DNA content plots.
A 20 mM stock solution of dysidiolide was prepared in dimethylsulfoxide (DMSO) and a pilot experiment was carried out to measure the effects of the drug on the viability (Trypan blue exclusion) and flow cytometric parameters of four human cancer cell lines: the prostate lines TSU-Pr1, PC3 and DU145, and the breast line, MCF7. Cultures were treated with 0, 2, 10 and 50 μM dysidiolide for 24 hr. Dysidiolide was cytotoxic to the four lines as evidenced by the loss of Trypan blue exclusion capability and by the appearance of sub-G1 fraction on flow cytometric (FACS) analysis (FIGS. 3 and 4A-D). […] (At 50 μM dysidiolide, the level of cell death was too high in TSU-Pr1 cells to fit a valid histogram (FIG. 5A)). […]

The next data set relates to Cdk4. Put plainly: in vitro kinase assay of Cdk4 immunoprecipitated from treated TSU-Pr1 cells. Format: cell-based, human. The conditions noted are these: 3.33 μM, TSU-Pr1, as early as 3 hours in drug. On the procedure: (§1) TSU-Pr1 cells were treated for 24 hours with either DMSO or 3.33 μM dysidiolide. Cells were pulse-labeled for 30 min with bromodeoxyuridine (BrdU) and analyzed by FACS. The R@ window contains BRDU-positive, S-phase cells. Consistent with the proposed inhibitory effect of dysidiolide on the positive cell cycle regulator Cdc25. the drug inhibited the activity of cyclin-dependent kinases (Cdk). Cdk4, 6 and 2 were immunoprecipitated from DMSO- or drug-treated TSU-Pr1 cell cultures. Activity was examined in vitro kinase assays. The activity of the three Cdks was inhibited in drug-treated cells, as early as 3 hours in drug.
(§2) In vitro kinase assays of Cdk. TSU-Pr1 cells were treated with 3.33 μM dysidiolide for 0-24 hours. Samples were collected at various times and the activity of Cdk4, 6 and 2 was determined. Cdks were immunoprecipitated with specific antibodies and incubated with radiolabeled ATP plus either histH1 (for Cdk2) or GST-Rb (for Cdk4 and 6). Reactions were separated on SDS-polyacrylamide gels and the amount of phosphorylated product was determined by radiometric analysis.

Another data set has as its system Cdc25 C. Put plainly: steady-state levels of Cdc25 C in MCF7 cell lysates. The format is cell-based, human. As to the method:
Effect of dysidiolide on the activity of Cdk2 and on the steady-state levels of Cdc25A and Cdc25C. MCF7 cells were treated for 2 or 4 hr with 0, 2 or 10 μM dysidiolide. A) The kinase activity of Cdk2 was assayed on immunoprecipitates using histone H1 as exogenous substrate. B) The steady-state levels of Cdc25 A and C were analyzed in total cell lysates with specific antibodies (Santa Cruz Biotechnology's sc097 and sc327 antibodies were used for detection of Cdc25 A and C, respectively).
(A) Effect of 50 μM dysidiolide on the steady-state levels of Cdc25 A and C, and of other cell cycle regulators in MCF7 cells after a 24 hr treatment.
To further characterize the effects of dysidiolide on cell cycle control, experiments were conducted at the molecular level. As Cdc25s (A, B and C) are positive regulators of cyclin-dependent kinases (Cdk) (reviewed in Draetta and Eckstein, BBA 1332: M53-M63, 1997) inhibition of Cdc25 is expected to result in inhibition of Cdk activity. MCF7 cells were treated with 2 or 10 μM dysidiolide or with DMSO (controls) for 2 or 4 hr. Cell extracts were used to measure the steady-state levels of Cdc25 A and C, and Cdk activity. […] However, a decrease in the levels of Cdc25 C (but not on A) was clearly noticeable (FIG. 9B). In the next experiment MCF7 cells were treated for 24 hr with 50 μM dysidiolide or with DMSO (control) for 24 hr. […]

The subject of another data set is Cdk6. Put plainly: in vitro kinase assay of Cdk6 immunoprecipitated from treated TSU-Pr1 cells. Format: cell-based, human. The note with it: 3.33 μM, TSU-Pr1, as early as 3 hours in drug. As to the method:
as §1, §2

Regarding `C=C(C)CCC[C@@]1(C)CCC[C@H]2C1=CC[C@H](C)[C@]2(C)C[C@H](O)C1=CC(=O)O[C@@H]1O` (racemic) [dysidiolide], the “inhibition of human cdc25A protein phosphatase” value in data set [1] is “potent inhibitor”. Further, the “cytotoxicity (loss of Trypan blue exclusion, sub-G1 fraction)” value in data set [2] (2, 10 and 50 μM, 24 hr) is reported as “cytotoxic”. In data set [2] (2-50 μM, within 24 hours, four human cancer cell lines), the growth arrest result is recorded as “growth arrest”. The Cdk4 activity result in the data set with Cdk4 is reported as “inhibited”. Further, the “levels of Cdc25 C” value in the data set with Cdc25 C (50 μM, 24 hr) is given as “reduced”; in the data set on Cdc25 C (2 or 10 μM, 2 or 4 hr), “decrease”. Moreover, the Cdk6 activity entry with Cdk6 is reported as “inhibited”.
